Data published in PubChem BioAssay (NCI).
Where “and” joins values, the source holds several entries; their conditions need not be identical. Identical values can stand only once.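 Cultured in 96-well plates, cells were exposed to test compound for 48 hours across five concentrations. GI50: concentration for 50% inhibition of growth. TGI denotes the concentration required for complete inhibition of growth.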

How the values were obtained:
Assay in all cases: DTP human tumour cell line panel, 48 h
[1] = tested on: CAKI-1 renal
[2] = tested on: SNB-19 CNS
[3] = tested on: MDA-MB-435
[4] = tested on: SN12C renal
[5] = tested on: CCRF-CEM leukemia
[6] = tested on: RXF 393 renal
[7] = tested on: OVCAR-3 ovarian
[8] = tested on: HOP-62 NSCLC
[9] = tested on: HCT-15 colon
[10] = tested on: HT29 colon

SMILES	GI50 [1]	TGI [1] [µM]	GI50 [2] [µM]	TGI [2]	GI50 [3]	TGI [3]	GI50 [4] [µM]	TGI [4]	GI50 [5]	TGI [5]	GI50 [6]	TGI [6]	GI50 [7] [µM]	TGI [7]	GI50 [8] [µM]	TGI [8]	GI50 [9] [µM]	TGI [9] [µM]	GI50 [10] [µM]	TGI [10] [µM]
N#CCn1c(=O)c(Oc2ccc(F)cc2F)cc2cnc(NC3CCOCC3)nc21	> 25 µM	> 25	> 25	> 25 µM	> 25 µM	> 25 µM	> 25	> 25 µM	> 25 µM	> 25 µM	> 17.9 µM	> 25 µM	> 25	> 25 µM	> 25	> 25 µM	> 25	> 25	> 25	> 25
Oc1ccc(Br)cc1C=Nc1cccc(C(F)(F)F)c1		> 100		> 100 µM		> 100 µM		> 100 µM		28.5 µM		> 100 µM		> 100 µM		> 100 µM		> 100		> 100
C=C1C[C@H]2C=Nc3cc(OCCCOc4cc5c(cc4OC)C(=O)N4CC(=C)C[C@H]4C=N5)c(OC)cc3C(=O)N2C1	0.0113 µM		0.00545	4.39 µM	0.0134 µM and < 0.0148 µM	0.0339 µM and < 0.215 µM	0.00151		0.00019 µM	0.0144 µM		< 0.0292 µM		0.2 µM		< 0.215 µM	0.0231			19.7
Clc1nccc2c(-c3csc(-c4c[nH]c5ccc(Br)cc45)n3)c[nH]c12	1.96 µM	8.04	3.25	11.6 µM	3.43 µM	13 µM	3.35	14.4 µM	3.16 µM	20.9 µM	1.48 µM	3.43 µM	3.45	15 µM	2.11	7.24 µM	1.4	3.33	2.66	8.22
O=C(Nc1ccc(Oc2ccc3nc(NC(=O)c4ccco4)[nH]c3c2)cc1)Nc1cc(C(F)(F)F)ccc1F	1.81 µM	> 14.4	6.95	> 25 µM	0.973 µM	7.71 µM	0.89	10.9 µM	1.85 µM	> 25 µM	1.28 µM	5.13 µM	2.9	7.22 µM	3.44	10.7 µM	1.33	> 17.2	1.18	6.09
COc1ccc(C(O)c2cc3c(N)c(C(=O)Nc4ccc(Cl)cc4)sc3nc2C)cc1 (stereo not drawn)	2.79 µM	15.6	4.16	44.6 µM	0.317 µM	1.17 µM	5.53	24.9 µM	2.47 µM	> 100 µM	2.25 µM	11.6 µM	2	4.78 µM	3.24	19.2 µM	0.719	12.9	2.49	8.73
CC(=O)OCC1OC(n2c(=S)n(-c3ccc([N+](=O)[O-])cc3)c(=O)c3ccccc32)C(OC(C)=O)C(OC(C)=O)C1OC(C)=O (stereo not drawn)	25.3 µM and 35.9 µM	> 100	24.4	47.5 µM and 69.4 µM		> 100 µM		70.1 µM and 44.4 µM	5.11 µM and 15.4 µM	96.9 µM and > 100 µM	4.61 µM and 14.3 µM	17.1 µM and 29.6 µM	20	47.5 µM and 49.8 µM		53.7 µM and 54.7 µM		> 100		> 100
